The target of assay [1] is T1, TCP pilus virulence regulatory protein (Vibrio cholerae serotype O1 (strain ATCC 39541 / Classical Ogawa 395 /O395)) (UniProt A5F384).
T1 sequence (whole entry): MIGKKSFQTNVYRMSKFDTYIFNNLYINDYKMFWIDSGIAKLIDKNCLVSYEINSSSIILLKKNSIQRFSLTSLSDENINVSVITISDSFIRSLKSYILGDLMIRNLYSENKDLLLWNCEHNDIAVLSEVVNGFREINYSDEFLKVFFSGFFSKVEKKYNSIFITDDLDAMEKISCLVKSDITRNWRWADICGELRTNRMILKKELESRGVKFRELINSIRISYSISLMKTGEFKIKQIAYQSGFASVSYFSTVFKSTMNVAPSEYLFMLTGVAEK
In words: Inhibition of wild type ToxT in Vibrio cholerae El Tor strain C6706 at 500 nM measured after 3.5 hrs by beta-galactosidase assay relative to control.

Assay [2] addresses T1, TCP pilus virulence regulatory protein (Vibrio cholerae serotype O1 (strain ATCC 39541 / Classical Ogawa 395 /O395)). The assay can be described thus: Inhibition of ToxT in Vibrio cholerae at upto 5 uM measured after 3.5 hrs by beta-galactosidase assay relative to control. As to conditions: dose microM <=5, time 3.5 hrs.
The target is the same in assay [3]. The assay can be described thus: Inhibition of ToxT in delattoxT tcpA-linked LacZ reporter gene harboring Vibrio cholerae at 500 nM measured after 3.5 hrs by beta-galactosidase assay relative to control. A general note: In a reporter assay the amount or activity of a reporter protein is the signal.

Activity calls are given as the source filed them. The rule behind the calls is not given here.

Broadly, the inhibition is the drop in the measured response relative to a control, in per cent.

Turning to `CCCC1=C2CCC[C@@]2(C)CC[C@@H]1CC/C=C/C(=O)O`, the inhibition entry in assay [1] was “Active”.

`O=C(O)CCCN1C(=O)c2cccc3cccc(c23)C1=O` had an inhibition in assay [2] of 20%.

Regarding `CCCCC1=C2CCC[C@@]2(C)CC[C@@H]1CCC(=O)O`, in assay [1], the inhibition was found to be 80%.

`CCCC1=C2CCC[C@@]2(C)CC[C@@H]1CCC(=O)O` had an inhibition in assay [1] of 60%.

`CCCCC1=C2CCC[C@]2(C)CC[C@H]1CCC(=O)O` had an inhibition in assay [1] of 50%.

Take `CCCCC1=C2CCC[C@@]2(C)CC[C@@H]1CC/C=C/C(=O)O`: in assay [1], the inhibition stood at 25%.

Consider `Cc1cccc2c1C(CCC(=O)O)CCC2` (racemic), for which the figures for the inhibition in assay [3] and in assay [1] were 80% and 45%, respectively.

(Values after ChEMBL document CHEMBL4842378, “An Enantiodefined Conformationally Constrained Fatty Acid Mimetic and Potent Inhibitor of ToxT” (ACS Med Chem Lett, 2021).)
